The results in this text go back to patent US10004701B2, “Methods and compositions for treating infection” (UNIVERSITY OF ROCHESTER, priority 2012, dated 2018).

Test in all cases: AK assay 384-well format, Prestwick library screening
The subject of one test is E. faecium. The format is cell-based, Enterococcus faecium. Conditions: 50 μM final drug concentration; for fold induction at 50 µM: Enterococcus faecium, 3 h.
Test [1] deals with S. aureus strain USA300-0114. The class given is cell-based, Staphylococcus aureus. To be noted: 50 μM final drug concentration; for fold induction at 50 µM: Staphylococcus aureus, USA300, 3 h.
A further test relates to K. pneumoniae. The format is cell-based, Klebsiella pneumoniae. To be noted: 50 μM final drug concentration; for fold induction at 50 µM: Klebsiella pneumoniae, 3 h.
Test [2] concerns A. baumannii strain 98-37-09. The format is cell-based, Acinetobacter baumannii. Conditions: 50 μM final drug concentration; for fold induction at 50 µM: Acinetobacter baumannii, 983709, 3 h.
The subject of the next test is P. aeruginosa. The format is cell-based, Pseudomonas aeruginosa. Conditions: 50 μM final drug concentration; for fold induction at 50 µM: Pseudomonas aeruginosa, 3 h.
The test system of the next test is E. cloacae. The class given is cell-based, Enterobacter cloacae. Conditions: 50 μM final drug concentration; for fold induction at 50 µM: Enterobacter cloacae, 3 h.
The test system of a further test is E. coli. The class given is cell-based, Escherichia coli. Conditions: 50 μM final drug concentration; for fold induction at 50 µM: Escherichia coli, 3 h.
The mark [3] stands for this setting: 384-well format, cutoff for positive-scoring molecules 3-fold increase, read-out: AK-based Prestwick Library Screening Results, E. faecium (increase in extracellular AK activity).
[4] abbreviates: 384-well format, cutoff for positive-scoring molecules 3-fold increase, read-out: AK-based Prestwick Library Screening Results, S. aureus (increase in extracellular AK activity).
[5] abbreviates: 384-well format, cutoff for positive-scoring molecules 3-fold increase, read-out: AK-based Prestwick Library Screening Results, K. pneumoniae (increase in extracellular AK activity).
Where [6] appears, read: 384-well format, cutoff for positive-scoring molecules 3-fold increase, read-out: AK-based Prestwick Library Screening Results, A. baumannii (increase in extracellular AK activity).
[7] abbreviates: 384-well format, cutoff for positive-scoring molecules 3-fold increase, read-out: AK-based Prestwick Library Screening Results, P. aeruginosa (increase in extracellular AK activity).
The mark [8] stands for this setting: 384-well format, cutoff for positive-scoring molecules 3-fold increase, read-out: AK-based Prestwick Library Screening Results, E. cloacae (increase in extracellular AK activity).
[9] abbreviates: 384-well format, cutoff for positive-scoring molecules 3-fold increase, read-out: AK-based Prestwick Library Screening Results, E. coli (increase in extracellular AK activity).
Setting [10] is: planktonic E. faecium, 384-well, cutoff for positive-scoring molecules 3-fold increase, read-out: AK-based Prestwick Library Screening Results: E. faecium (increase in extracellular AK activity).
[11] abbreviates: planktonic S. aureus, 384-well, cutoff for positive-scoring molecules 3-fold increase, read-out: AK-based Prestwick Library Screening Results: S. aureus (increase in extracellular AK activity).
The mark [12] stands for this setting: planktonic K. pneumoniae, 384-well, cutoff for positive-scoring molecules 3-fold increase, read-out: AK-based Prestwick Library Screening Results: K. pneumoniae (increase in extracellular AK activity).
Where [13] appears, read: planktonic A. baumannii, 384-well, cutoff for positive-scoring molecules 3-fold increase, read-out: AK-based Prestwick Library Screening Results: A. baumannii (increase in extracellular AK activity).
The mark [14] stands for this setting: planktonic P. aeruginosa, 384-well, cutoff for positive-scoring molecules 3-fold increase, read-out: AK-based Prestwick Library Screening Results: P. aeruginosa (increase in extracellular AK activity).
Where [15] appears, read: planktonic E. cloacae, 384-well, cutoff for positive-scoring molecules 3-fold increase, read-out: AK-based Prestwick Library Screening Results: E. cloacae (increase in extracellular AK activity).
[16] abbreviates: planktonic E. coli, 384-well, cutoff for positive-scoring molecules 3-fold increase, read-out: AK-based Prestwick Library Screening Results: E. coli (increase in extracellular AK activity).

Each structure is given as a SMILES string. Counter-ions that a name gives are not always drawn. Like-named read-outs stand apart in the source and are kept apart here.

As to `O=C(O)c1cccnc1Nc1cccc(C(F)(F)F)c1` [Niflumic acid], the fold induction at 50 µM with E. faecium (setting [3]) was found to be 0.9; in test [1] (setting [4]), 0.7; with K. pneumoniae (setting [5]), 0.6; in test [2] (setting [6]) it was 0.7; in the test with P. aeruginosa (setting [7]), 0.7; with E. cloacae (setting [8]), 0.8. Moreover, the fold induction at 50 µM in the test on E. coli (setting [9]) amounted to 0.6.
As for `COc1nc(C)nc(Cl)c1N=C1NCCN1` [Moxonidine], the fold induction at 50 µM with E. faecium (planktonic E. faecium, positive cutoff 3-fold increase, read-out: AK-based Prestwick library screening result, E. faecium (fold increase in extracellular AK activity)) is 0.9; in test [1] (planktonic S. aureus, positive cutoff 3-fold increase, read-out: AK-based Prestwick library screening result, S. aureus (fold increase in extracellular AK activity)) it was 1; in the test on K. pneumoniae (planktonic K. pneumoniae, positive cutoff 3-fold increase, read-out: AK-based Prestwick library screening result, K. pneumoniae (fold increase in extracellular AK activity)), 1.1; in test [2] (planktonic A. baumannii, positive cutoff 3-fold increase, read-out: AK-based Prestwick library screening result, A. baumannii (fold increase in extracellular AK activity)) it was 1.1; in the test on P. aeruginosa (planktonic P. aeruginosa, positive cutoff 3-fold increase, read-out: AK-based Prestwick library screening result, P. aeruginosa (fold increase in extracellular AK activity)), 1.1; with E. cloacae (planktonic E. cloacae, positive cutoff 3-fold increase, read-out: AK-based Prestwick library screening result, E. cloacae (fold increase in extracellular AK activity)) it was 1.8. Further, in the test on E. coli (planktonic E. coli, positive cutoff 3-fold increase, read-out: AK-based Prestwick library screening result, E. coli (fold increase in extracellular AK activity)), the fold induction at 50 µM came to 1.1.
Take `C[C@@H]1O[C@@H](O[C@@H]2C=C3CC[C@@H]4[C@H](CC[C@]5(C)[C@@H](c6ccc(=O)oc6)CC[C@]45O)[C@@]3(C)CC2)[C@H](O)[C@H](O)[C@H]1O` [Proscillaridin A]: in the test on E. faecium (planktonic E. faecium, […]), the “AK-based Prestwick library screening result, E. faecium (fold increase in extracellular AK activity)” value worked out at 0.8. In addition, the “AK-based Prestwick library screening result, S. aureus (fold increase in extracellular AK activity)” value in test [1] (planktonic S. aureus, […]) amounted to 0.6. For the same compound, the “AK-based Prestwick library screening result, K. pneumoniae (fold increase in extracellular AK activity)” value with K. pneumoniae (planktonic K. pneumoniae, […]) was 0.7. In test [2] (planktonic A. baumannii, […]), the “AK-based Prestwick library screening result, A. baumannii (fold increase in extracellular AK activity)” value is on record as 0.8. Besides, the “AK-based Prestwick library screening result, P. aeruginosa (fold increase in extracellular AK activity)” value with P. aeruginosa (planktonic P. aeruginosa, […]) is 0.9. Also, the “AK-based Prestwick library screening result, E. cloacae (fold increase in extracellular AK activity)” value in the test on E. cloacae (planktonic E. cloacae, […]) was found to be 0.9. Further, in the test with E. coli (planktonic E. coli, […]), the “AK-based Prestwick library screening result, E. coli (fold increase in extracellular AK activity)” value turned out to be 0.9.
For the compound `O=C1C(O)=C([C@H]2CC[C@H](c3ccc(Cl)cc3)CC2)C(=O)c2ccccc21` [Atovaquone], the fold induction at 50 µM in the test on E. faecium (planktonic, cutoff for positive 3-fold increase, read-out: AK-based Prestwick Library Screening Results, E. faecium (fold increase in extracellular AK activity)) stood at 1; in test [1] (planktonic, cutoff for positive 3-fold increase, read-out: AK-based Prestwick Library Screening Results, S. aureus (fold increase in extracellular AK activity)), 1.2; in the test on K. pneumoniae (planktonic, cutoff for positive 3-fold increase, read-out: AK-based Prestwick Library Screening Results, K. pneumoniae (fold increase in extracellular AK activity)), 0.8; in test [2] (planktonic, cutoff for positive 3-fold increase, read-out: AK-based Prestwick Library Screening Results, A. baumannii (fold increase in extracellular AK activity)) it was 1.2; with P. aeruginosa (planktonic, cutoff for positive 3-fold increase, read-out: AK-based Prestwick Library Screening Results, P. aeruginosa (fold increase in extracellular AK activity)), 1; in the test on E. cloacae (planktonic, cutoff for positive 3-fold increase, read-out: AK-based Prestwick Library Screening Results, E. cloacae (fold increase in extracellular AK activity)) it was 1.4. In addition, the fold induction at 50 µM in the test on E. coli (planktonic, cutoff for positive 3-fold increase, read-out: AK-based Prestwick Library Screening Results, E. coli (fold increase in extracellular AK activity)) came to 1.1.
Turning to `NCCCC[C@H](N[C@@H](CCc1ccccc1)C(=O)O)C(=O)N1CCC[C@H]1C(=O)O` [Lisinopril], the fold induction at 50 µM in the test with E. faecium (setting [10]) was 1; in test [1] (setting [11]) it was 4.3; in the test on K. pneumoniae (setting [12]) it was 1; in test [2] (setting [13]), 1.3; in the test with P. aeruginosa (setting [14]), 1.2; in the test on E. cloacae (setting [15]), 1.5. Further, in the test with E. coli (setting [16]), the fold induction at 50 µM stood at 1.2.
With `CCN1CCN(C(=O)N[C@@H](C(=O)N[C@@H]2C(=O)N3C(C(=O)O)=C(CSc4nnnn4C)CS[C@H]23)c2ccc(O)cc2)C(=O)C1=O` [Cefoperazone dihydrate], the fold induction at 50 µM in the test on E. faecium (setting [10]) was 0.9; in test [1] (setting [11]), 0.7; in the test with K. pneumoniae (setting [12]), 2.1; in test [2] (setting [13]), 0.7; with P. aeruginosa (setting [14]) it was 5.2; in the test with E. cloacae (setting [15]), 12. Moreover, the fold induction at 50 µM in the test with E. coli (setting [16]) turned out to be 16.5.
As to `O=C(CCCN1CCC2(CC1)C(=O)NCN2c1ccccc1)c1ccc(F)cc1` [Spiperone], the fold induction at 50 µM in the test with E. faecium (setting [10]) worked out at 1.2; in test [1] (setting [11]) it was 1; in the test on K. pneumoniae (setting [12]), 0.9; in test [2] (setting [13]), 1.2; in the test with P. aeruginosa (setting [14]), 1.2; in the test with E. cloacae (setting [15]), 1.3. For the same compound, the fold induction at 50 µM with E. coli (setting [16]) amounted to 1.3.
Take `CN(C)[C@@H]1C(O)=C(C(N)=O)C(=O)[C@@]2(O)C(O)=C3C(=O)c4c(O)cccc4[C@@](C)(O)[C@H]3C[C@@H]12` [Tetracycline hydrochloride]: the fold induction at 50 µM in the test on E. faecium (setting [10]) was 1; in test [1] (setting [11]), 9.2; with K. pneumoniae (setting [12]), 0.2; in test [2] (setting [13]), 4.4; with P. aeruginosa (setting [14]), 0.5; with E. cloacae (setting [15]), 1. The fold induction at 50 µM in the test on E. coli (setting [16]) worked out at 0.8.
For the compound `COc1cc2c(cc1O)C[C@H]1c3c(cc(O)c(OC)c3-2)CCN1C` [Boldine], the fold induction at 50 µM in the test with E. faecium (planktonic E. faecium, […], read-out: AK-based Prestwick Library Screening Results, E. faecium (increase in extracellular AK activity)) came out at 0.9; in test [1] (planktonic S. aureus, […], read-out: AK-based Prestwick Library Screening Results, S. aureus (increase in extracellular AK activity)), 0.8; in the test with K. pneumoniae (planktonic K. pneumoniae, […], read-out: AK-based Prestwick Library Screening Results, K. pneumoniae (increase in extracellular AK activity)) it was 0.7; in test [2] (planktonic A. baumannii, […], read-out: AK-based Prestwick Library Screening Results, A. baumannii (increase in extracellular AK activity)), 0.8; with P. aeruginosa (planktonic P. aeruginosa, […], read-out: AK-based Prestwick Library Screening Results, P. aeruginosa (increase in extracellular AK activity)), 0.9; in the test on E. cloacae (planktonic E. cloacae, […], read-out: AK-based Prestwick Library Screening Results, E. cloacae (increase in extracellular AK activity)), 1.2. The fold induction at 50 µM in the test with E. coli (planktonic E. coli, […], read-out: AK-based Prestwick Library Screening Results, E. coli (increase in extracellular AK activity)) is 0.9.
Consider `CCCCNc1cc(C(=O)O)cc(S(N)(=O)=O)c1Oc1ccccc1` [Bumetanide], for which the fold induction at 50 µM is 0.9 with E. faecium (setting [3]); 0.7 in test [1] (setting [4]); 0.7 in the test on K. pneumoniae (setting [5]); 0.8 in test [2] (setting [6]); 0.8 in the test with P. aeruginosa (setting [7]); 1.3 with E. cloacae (setting [8]). Also, the fold induction at 50 µM in the test with E. coli (setting [9]) was 0.9.
